Tests used:
MHC class I = test: MHC binding assay (UV-ligand exchange, ELISA); design: species or system human; conditions: yield of UV-ligand exchange reaction
Excerpt: Candidate peptides for T cell based therapies according to the present invention were further tested for their MHC binding capacity (affinity). The individual peptide-MHC complexes were produced by UV-ligand exchange, where a UV-sensitive peptide is cleaved upon UV-irradiation, and exchanged with the peptide of interest as analyzed. Only peptide candidates that can effectively bind and stabilize the peptide-receptive MHC molecules prevent dissociation of the MHC complexes. To determine the yield of the exchange reaction, an ELISA was performed based on the detection of the light chain (62m) of stabilized MHC complexes. The assay was performed as generally described in Rodenko et al (Rodenko et al., 2006).
96 well MAXISorp plates (NUNC) were coated over night with 2 ug/ml streptavidin in PBS at room temperature, washed 4× and blocked for 1 h at 37° C. in 2% BSA containing blocking buffer. Refolded HLA-A*02:01/MLA-001 monomers served as standards, covering the range of 15-500 ng/ml. Peptide-MHC monomers of the UV-exchange reaction were diluted 100 fold in blocking buffer. Samples were incubated for 1h at 37° C., washed four times, incubated with 2 ug/ml HRP conjugated anti-62m for 1h at 37° C., washed again and detected with TMB solution that is stopped with […]. Absorption was measured at 450 nm. Candidate peptides that show a high exchange yield (preferably higher than 50%, most preferred higher than 75%) are generally preferred for a generation and production of antibodies or fragments thereof, and/or T cell receptors or fragments thereof, as they show sufficient avidity to the MHC molecules and prevent dissociation of the MHC complexes.

CD4+ T cells [1] = test: HLA class II T-cell proliferation assay (ProImmune, CFSE); format: cell-based, human; conditions: for Number of positive donors: 21 donor samples, positive = over 0.02% stimulation above background; for Number of positive donors / Strength of response: mean in % above the background: 5 μM peptide; for Strength of response: mean in % above the background: CD4+ T-cell proliferation (CFSE)
Excerpt: The experiments as follows summarize the results of T-cell Proliferation Assays of selected MHC class II TUMAPs. Nine of 10 tested peptide antigens tested positive for immunogenicity. […] Individual peptide antigens stimulated the CD4+ T-cell proliferation in up to 6 donors. […] Thus, it can be concluded that the newly tested peptides also have a high potential to induce T-cell responses in vaccine trials.
In order to characterize selected peptides for their potential especially as vaccine candidates, their in vitro immunogenicity was determined by analysis of T-cell proliferation using a commercial T-cell Proliferation Assay from the company ProImmune.
Healthy donor CD8-depleted blood cells samples were tested with the selected peptides. The peptides that induce the proliferation of CD4+ T cells can potentially result in the development of a helper T-cell immune response, and therefore are considered to be immunogenic. The proliferation of CD4+ T cells was determined using carboxyfluorescein succinimidyl ester (CFSE) labelling. In proliferating cells, CFSE is distributed evenly to dividing cells. Thus, the proliferation can be measured as a decrease in CFSE fluorescence in the cells as analyzed.
Peripheral blood mononuclear cell (PBMC) samples from healthy human donors were selected from the ProImmune cell bank based on HLA-DRB1 allele expression. CD8^+ T-cells were depleted from donor blood samples prior to use to avoid a false-positive response. The remaining CD4^+ T cells were labelled with CFSE and subsequently incubated with 5 μM of each selected peptide. Each peptide was tested in six replicated wells. The background was measured on each plate in six unstimulated control wells.
After an incubation period of 7 days the cells were co-stained with anti-CD4 antibody and analyzed by flow cytometry. The degree of proliferation was determined by measuring a reduction in CFSE intensity.
The evaluation of flow cytometric data was performed using FlowJo Software (Tree Star, Inc.). The results of flow cytometric analysis were expressed as the ratio of the CD4^+ dim population to the total CD4^+ population. The degree of proliferation was expressed as percentage of stimulation above background, i.e. proportion of antigen stimulated CD4^+ CFSE dim cells minus the proportion of CD4^+ CFSE dim cells from unstimulated control wells. For each sample, a mean and the corresponding standard error of the mean (SEM) of the six replicates were calculated.
Donors were chosen by HLA-DRB1 allele expression. The other two HLA class II loci (DQ and DP) have not been included into the analysis. The interesting DRB1 alleles were selected according to the frequencies of predicted peptide binding based on […] algorithm (Rammensee et al., 1999). For HLA-DR, binding was defined by a […] binding prediction score equal or greater than 18. This threshold score for binding was defined based on the analysis of binding scores of known published promiscuous HLA-DR ligands (Table 24).
All DRB1 alleles with binding frequency over 20% over all selected peptides were requested to be included into the donor panel) by ProImmune. 4 other rare DRB1 alleles (DRB1*10:01, DRB1*16:01, DRB1*08:01, and DRB1*13:03) were requested additionally.
The antigen-stimulated proliferation of CD4^+ T cells was considered as an indicator of in vitro immunogenicity and was investigated in a commercially available T-cell Proliferation Assay from ProImmune. The degree of antigen-stimulated CD4^+ T-cell proliferation was expressed as a percentage of stimulation above background. A response over 0.02% stimulation above background with SEM=2 (i.e. values two standard errors greater than background) was considered to be positive.

CD4 T cells = test: In vivo immunogenicity in vaccinated patients, intracellular cytokine staining (ICS) of CD4 T cells; design: species or system human; conditions: IMA950 peptides, 16 patients, study IMA950-101
Description: The T-cell proliferation analysis included 5 peptides with known in vivo immunogenicity as positive controls. The in vivo immunogenicity of these peptides was determined in blood samples of patients vaccinated with these peptides in clinical trials using intracellular cytokine staining (ICS) of CD4 T cells.
In principle, ICS assays analyze the quality of specific T cells in terms of effector functions. Therefore the peripheral mononuclear cells (PBMCs) were re-stimulated in vitro with the peptide of interest, a reference peptide and a negative control (here MOCK). Following the re-stimulated cells were stained for IFN-gamma, TNF-alpha, IL-2 and IL-10 production, as well as expression of the co-stimulatory molecule CD154. The counting of stained cells was performed on a flow cytometer (FIG. 5).

CD4+ T cells [2] = conditions: 19 evaluable patients, prostate cancer-specific peptide vaccine (Feyerabend 2009; Widenmeyer 2008); cited from earlier work

| Substance | Number of positive donors (CD4+ T cells [1]; 7 days) | Strength of response: mean in % above the background (CD4+ T cells [1]; 7 days) [%] | further results |
| --- | --- | --- | --- |
| 45 (KFLESKGYEF; listed as Homo sapiens) [compound 45] |  |  | Peptide exchange (MHC class I binding score) (MHC class I): +++ (50%-75% = +++) |
| FN1-002: selected HLA class II peptide antigen of the T-cell proliferation assay; probably the FN1 HLA-DR peptide SEQ ID No. 93 (SRPQAPITGYRIVYSPSV; listed as Homo sapiens) |  |  | tested positive for immunogenicity (antigen-stimulated CD4+ T-cell proliferation) (CD4+ T cells [1]; positive: >0.02% stimulation above background, 5 uM peptide, 7 days): exception |
| MET-005: IMA950 class II peptide, positive control with known in vivo immunogenicity (TFSYVDPVITSISPKYG; listed as Homo sapiens) [reference compound] | 4 | 0.31 | immune response by vaccination (ICS) (CD4 T cells): 100% |
| IGF2BP3-002 (KLYIGNLSENAAPS; listed as Homo sapiens) | 3 | 0.40 |  |
| COL11A1-001 (EGDIQQFLITGDPKAAYDY; listed as Homo sapiens) | 5 | 0.19 |  |
| COL5A2-001 (VARLPIIDLAPVDVGGTD; listed as Homo sapiens) | 2 | 0.21 |  |
| 60 (SYPAKLSFI; listed as Homo sapiens) [compound 60] |  |  | Peptide exchange (MHC class I binding score) (MHC class I): +++ (50%-75% = +++) |
| COL1A2-001 (NKPSRLPFLDIAPLDIGGAD; listed as Homo sapiens) | 2 | 0.48 |  |
| LAMC2-003 (DAVQMVITEAQKVDTR; listed as Homo sapiens) | 3 | 0.27 |  |
| POSTN-002 (TNGVIHVVDKLLYPADT; listed as Homo sapiens) | 2 | 0.39 |  |
| 80 (AYLKEVEQL; listed as Homo sapiens) [compound 80] |  |  | Peptide exchange (MHC class I binding score) (MHC class I): +++ (50%-75% = +++) |
| LAMP3-002 (IQLIVQDKESVFSPR; listed as Homo sapiens) | 5 | 0.25 |  |
| 31 (SYLDKVRAL; listed as Homo sapiens) [compound 31] |  |  | Peptide exchange (MHC class I binding score) (MHC class I): +++ (50%-75% = +++) |
| ITGB6-001 (NPVSQVEILKNKPLSVG; listed as Homo sapiens) | 6 | 0.23 |  |
| 55 (IYPVKYTQTF; listed as Homo sapiens) [compound 55] |  |  | Peptide exchange (MHC class I binding score) (MHC class I): +++ (50%-75% = +++) |
| TGFBI-004: IMA910 class II peptide, positive control with known in vivo immunogenicity (TPPIDAHTRNLLRNH; listed as Homo sapiens) [reference compound] | 2 | 0.19 |  |
| 51 (NYLLESPHRF; listed as Homo sapiens) [compound 51] |  |  | Peptide exchange (MHC class I binding score) (MHC class I): +++ (50%-75% = +++) |
| BIR-002: IMA950 class II peptide, positive control with known in vivo immunogenicity (TLGEFLKLDRERAKN; listed as Homo sapiens) [reference compound] | 3 | 0.24 | strength of stimulation response on average, above the background (CD4+ T cells [1]; CD4+ CFSE dim cells minus unstimulated control): 0.24%; immune response by vaccination (ICS) (CD4 T cells): 100%; patients mounting a strong CD4+ T-cell response (CD4+ T cells [2]): 84% |
| MMP-001: IMA910 class II peptide, positive control with known in vivo immunogenicity (SQDDIKGIQKLYGKRS; listed as Homo sapiens) [reference compound] | 2 | 0.09 |  |
| CEA-006: IMA910 class II peptide, positive control with known in vivo immunogenicity (SPQYSWRINGIPQQHT; listed as Homo sapiens) [reference compound] | 1 | 0.20 |  |
| MMP12-007 (LSADDIRGIQSLYGDPK; listed as Homo sapiens) | 2 | 0.28 |  |

Reference: patent US10526389B2, “Peptides and combinations of peptides for use in immunotherapy against lung cancer, including NSCLC and other cancers” (Immatics Biotechnologies GmbH, priority 2015, dated 2020)
